Legend:
AMARE [1] = experiment: Pre-emergence action against AMARE; format: in vivo, Amaranthus retroflexus; details: pre-emergence, dosage 320 g/ha, scored visually after 3 weeks vs untreated controls
Summary of the method: (§1)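 Seeds sown in sandy loam in wood-fiber pots and covered with soil. Greenhouse growth; visual damage scored after 3 weeks versus untreated controls (100% = dead, 0% = like control).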

STEME [2] = experiment: Pre-emergence action against STEME; format: in vivo, Stellaria media; details: Dosage 320 g/ha, pre-emergence
Summary of the method: as §1

ECHCG [3] = experiment: Pre-emergence action against ECHCG; format: in vivo, Echinochloa crus-galli; details: pre-emergence, dosage 320 g/ha, scored visually after 3 weeks vs untreated controls
Summary of the method: as §1

VERPE [4] = experiment: Pre-emergence action against VERPE; format: in vivo, Veronica persica; details: Dosage 320 g/ha, pre-emergence
Summary of the method: as §1

DIGSA = experiment: Pre-emergence action against DIGSA; format: in vivo, Digitaria sanguinalis; details: dosage 320 g/ha, scored visually after 3 weeks vs untreated controls
Source text: (§2) Seeds of monocotyledonous and dicotyledonous weed plants and crop plants are laid out in sandy loam soil in wood-fiber pots and covered with soil. The compounds of the invention, formulated in the form of wettable powders (WP) or as emulsion concentrates (EC), are then applied to the surface of the covering soil in the form of an aqueous suspension or emulsion at a water application rate equating to […], with addition of 0.2% wetting agent. After the treatment, the pots are placed in a greenhouse and kept under good growth conditions for the trial plants. The damage to the test plants is scored visually after a test period of 3 weeks by comparison with untreated controls (herbicidal activity in percent (%): 100% activity=the plants have died, 0% activity=like control plants).

VIOTR [5] = experiment: Pre-emergence action against VIOTR; format: in vivo, Viola tricolor; details: Dosage 320 g/ha, pre-emergence
Summary of the method: as §1

STEME [6] = experiment: Post-emergence action against STEME; format: in vivo, Stellaria media; details: post-emergence, dosage 80 g/ha
Summary of the method: (§3)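 Post-emergence foliar spray on greenhouse plants at the one-leaf stage, using wettable-powder or emulsion-concentrate formulations in water (600 to […], plus 0.2% wetting agent). Damage scored by eye roughly 3 weeks later against untreated plants: 0% = like control, 100% = dead.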

AMARE [7] = experiment: Post-emergence action against AMARE; format: in vivo, Amaranthus retroflexus; details: post-emergence, dosage 80 g/ha, visual assessment about 3 weeks after treatment vs untreated controls
Summary of the method: as §3

PHBPU = experiment: Post-emergence action against PHBPU; format: in vivo, Pharbitis purpurea; details: post-emergence, dosage 80 g/ha
Summary of the method: as §3

ABUTH [8] = experiment: Pre-emergence action against ABUTH; format: in vivo, Abutilon theophrasti; details: pre-emergence, dosage 320 g/ha, scored visually after 3 weeks vs untreated controls
Summary of the method: as §1

MATIN [9] = experiment: Pre-emergence action against MATIN; format: in vivo, Matricaria inodora; details: Dosage 320 g/ha, pre-emergence
Summary of the method: as §1

AVEFA = experiment: Pre-emergence action against AVEFA; format: in vivo, Avena fatua; details: dosage 320 g/ha, scored visually after 3 weeks vs untreated controls
Summary of the method: as §1

LOLRI = experiment: Pre-emergence action against LOLRI; format: in vivo, Lolium rigidum; details: dosage 320 g/ha, scored visually after 3 weeks vs untreated controls
Summary of the method: as §1

ABUTH [10] = experiment: Post-emergence action against ABUTH; format: in vivo, Abutilon theophrasti; details: post-emergence, dosage 80 g/ha, visual assessment about 3 weeks after treatment vs untreated controls
Summary of the method: as §3

ALOMY = experiment: Pre-emergence action against ALOMY; format: in vivo, Alopecurus myosuroides; details: dosage 320 g/ha, pre-emergence, scored visually after 3 weeks vs untreated controls, 100% = plants have died, 0% = like control plants
Summary of the method: as §1

POLCO [11] = experiment: Post-emergence action against POLCO; format: in vivo, Polygonum convolvulus; details: post-emergence, dosage 80 g/ha
Summary of the method: as §3

VERPE [12] = experiment: Post-emergence action against VERPE; format: in vivo, Veronica persica; details: Veronica persica, 504 h, dosage 80 g/ha
Summary of the method: as §3

SETVI [13] = experiment: Pre-emergence action against SETVI; format: in vivo, Setaria viridis; details: pre-emergence, dosage 320 g/ha, scored visually after 3 weeks vs untreated controls
Summary of the method: as §1

POLCO [14] = experiment: Pre-emergence action against POLCO; format: in vivo, Polygonum convolvulus; details: Dosage 320 g/ha, pre-emergence
Summary of the method: as §1

MATIN [15] = experiment: Post-emergence action against MATIN; format: in vivo, Matricaria inodora; details: post-emergence, dosage 80 g/ha, visual assessment about 3 weeks after treatment vs untreated controls
Summary of the method: as §3

ECHCG [16] = experiment: Post-emergence action against ECHCG; format: in vivo, Echinochloa crus-galli; details: post-emergence, dosage 80 g/ha, visual assessment about 3 weeks after treatment vs untreated controls
Summary of the method: as §3

CYPES [17] = experiment: Pre-emergence action against CYPES; format: in vivo, Cyperus esculentus; details: pre-emergence, dosage 320 g/ha, scored visually after 3 weeks vs untreated controls
Summary of the method: as §1

LOLMU = experiment: Pre-emergence action against LOLMU; format: in vivo, Lolium multiflorum; details: dosage 320 g/ha, scored visually after 3 weeks vs untreated controls
Source text: as §2

CYPES [18] = experiment: Post-emergence action against CYPES; format: in vivo, Cyperus esculentus; details: post-emergence, dosage 80 g/ha, visual assessment about 3 weeks after treatment vs untreated controls
Summary of the method: as §3

SETVI [19] = experiment: Post-emergence action against SETVI; format: in vivo, Setaria viridis; details: post-emergence, dosage 80 g/ha, visual assessment about 3 weeks after treatment vs untreated controls
Summary of the method: as §3

VIOTR [20] = experiment: Post-emergence action against VIOTR; format: in vivo, Viola tricolor; details: post-emergence, dosage 80 g/ha
Summary of the method: as §3

CSc1c(C(=O)Nc2nnnn2C)ccc(C(F)(F)F)c1C(=O)C1CCCC1 [1-285]
Pre-emergence action against AMARE (herbicidal activity) (AMARE [1]): 100%
Pre-emergence action against STEME (STEME [2]): 100%
Pre-emergence action against ECHCG (herbicidal activity) (ECHCG [3]): 80%
Pre-emergence action against VERPE (VERPE [4]): 90%
Pre-emergence action against DIGSA (herbicidal activity) (DIGSA): 90%
Pre-emergence action against VIOTR (VIOTR [5]): 100%
Post-emergence action against STEME (STEME [6]): 80
Post-emergence action against AMARE (herbicidal action in percent) (AMARE [7]): 90%
Post-emergence action against PHBPU (PHBPU): 80
Pre-emergence action against ABUTH (herbicidal activity) (ABUTH [8]): 100%
Pre-emergence action against MATIN (MATIN [9]): 100%
Pre-emergence action against AVEFA (herbicidal activity) (AVEFA): 80%
Pre-emergence action against LOLRI (herbicidal activity) (LOLRI): 80%
Post-emergence action against ABUTH (herbicidal action in percent) (ABUTH [10]): 90%

COc1c(C(=O)Nc2nnnn2C)ccc(C(F)(F)F)c1C(C)=O [1-48]
pest or weed control at 320 g/ha (AMARE [1]; Amaranthus retroflexus, 504 h, read-out: Pre-emergence action against AMARE (herbicidal activity)): 100%
pest or weed control at 320 g/ha (STEME [2]; Stellaria media, 504 h): 90%
pest or weed control at 320 g/ha (ECHCG [3]; Echinochloa crus-galli, 504 h, read-out: Pre-emergence action against ECHCG (herbicidal activity)): 100%
pest or weed control at 320 g/ha (VERPE [4]; Veronica persica, 504 h): 100%
pest or weed control at 320 g/ha (VIOTR [5]; Viola tricolor, 504 h): 100%
pest or weed control at 320 g/ha (ALOMY; Alopecurus myosuroides, 504 h, read-out: Pre-emergence action against ALOMY (herbicidal activity in percent)): 90%
pest or weed control at 80 g/ha (POLCO [11]; Fallopia convolvulus, 504 h): 90%
pest or weed control at 80 g/ha (STEME [6]; Stellaria media, 504 h): 100%
pest or weed control at 80 g/ha (VERPE [12]): 80%
pest or weed control at 320 g/ha (SETVI [13]; Setaria viridis, 504 h, read-out: SETVI (Table B8, pre-emergence herbicidal activity)): 100%
pest or weed control at 320 g/ha (POLCO [14]; Fallopia convolvulus, 504 h): 90%
pest or weed control at 80 g/ha (MATIN [15]; Tripleurospermum inodorum, 504 h, read-out: Post-emergence action against MATIN (herbicidal action in percent)): 100%
pest or weed control at 80 g/ha (AMARE [7]; Amaranthus retroflexus, 504 h, read-out: Post-emergence action against AMARE (herbicidal action in percent)): 100%
pest or weed control at 80 g/ha (PHBPU; Ipomoea purpurea, 504 h): 90%
pest or weed control at 320 g/ha (ABUTH [8]; Abutilon theophrasti, 504 h, read-out: Pre-emergence action against ABUTH (herbicidal activity)): 100%
pest or weed control at 80 g/ha (ECHCG [16]; Echinochloa crus-galli, 504 h, read-out: Post-emergence action against ECHCG (herbicidal action in percent)): 90%
pest or weed control at 320 g/ha (CYPES [17]; Cyperus esculentus, 504 h, read-out: Pre-emergence action against CYPES (herbicidal activity)): 90%
pest or weed control at 320 g/ha (MATIN [9]; Tripleurospermum inodorum, 504 h): 100%
pest or weed control at 320 g/ha (LOLMU; Lolium multiflorum, 504 h, read-out: Pre-emergence action against LOLMU (herbicidal activity)): 80%
pest or weed control at 320 g/ha (AVEFA; Avena fatua, 504 h, read-out: Pre-emergence action against AVEFA (herbicidal activity)): 90%
pest or weed control at 80 g/ha (CYPES [18]; Cyperus esculentus, 504 h, read-out: Post-emergence action against CYPES (herbicidal action in percent)): 100%
pest or weed control at 80 g/ha (SETVI [19]; Setaria viridis, 504 h, read-out: Post-emergence action against SETVI (herbicidal action in percent)): 80%
pest or weed control at 80 g/ha (VIOTR [20]; Viola tricolor, 504 h): 100%
pest or weed control at 80 g/ha (ABUTH [10]; Abutilon theophrasti, 504 h, read-out: Post-emergence action against ABUTH (herbicidal action in percent)): 100%

CCC(=O)c1c(Cl)ccc(C(=O)Nc2nnnn2CC)c1Cl [2-115]
Pre-emergence action against AMARE (herbicidal activity) (AMARE [1]): 100%
Pre-emergence action against STEME (STEME [2]): 100%
Pre-emergence action against ECHCG (herbicidal activity) (ECHCG [3]): 100%
Pre-emergence action against VERPE (VERPE [4]): 90%
Pre-emergence action against VIOTR (VIOTR [5]): 100%
Pre-emergence action against ALOMY (herbicidal activity in percent) (ALOMY): 100%
Post-emergence action against POLCO (POLCO [11]): 100
Post-emergence action against STEME (STEME [6]): 100
SETVI (Table B8, pre-emergence herbicidal activity) (SETVI [13]): 90%
Pre-emergence action against POLCO (POLCO [14]): 80%
Post-emergence action against MATIN (herbicidal action in percent) (MATIN [15]): 100%
Post-emergence action against AMARE (herbicidal action in percent) (AMARE [7]): 90%
Post-emergence action against PHBPU (PHBPU): 90
Pre-emergence action against ABUTH (herbicidal activity) (ABUTH [8]): 100%
Post-emergence action against ECHCG (herbicidal action in percent) (ECHCG [16]): 90%
Pre-emergence action against CYPES (herbicidal activity) (CYPES [17]): 90%
Pre-emergence action against MATIN (MATIN [9]): 100%
Pre-emergence action against LOLMU (herbicidal activity) (LOLMU): 100%
Pre-emergence action against AVEFA (herbicidal activity) (AVEFA): 90%
Post-emergence action against CYPES (herbicidal action in percent) (CYPES [18]): 80%
Post-emergence action against SETVI (herbicidal action in percent) (SETVI [19]): 90%
Post-emergence action against VIOTR (VIOTR [20]): 100
Post-emergence action against ABUTH (herbicidal action in percent) (ABUTH [10]): 90%

Reference: US11051515B2, “3-acyl-benzamides and their use as herbicides” (Bayer Aktiengesellschaft, priority 2017, dated 2021)
